One data set has as its system NL09 and NL11 strains. The class given is cell-based, influenza A virus.
Data set [1] has as its system A/Netherlands/241/11 (NL11). The class given is cell-based, influenza A virus.
In the next data set the test system is NL09 and NL11. The format is cell-based, influenza A virus.
The test system of the next data set is NL09 or NL11 strain. The format is cell-based, influenza A virus.
For the next data set, the system named is NL11 (H3N2). The class given is cell-based, influenza A virus.
The test system of another data set is NL09 or NL11. The class given is cell-based, influenza A virus.
Data set [2] concerns IAV laboratory strains (PR8 and WSN) and pandemic H1N1 (CA09). More on the design: method as in earlier work. Conditions: A549 cells, AF 1μM, 15 hpi; cited from earlier work.
Data set [3] relates to human precision-cut lung slices (hPCLSs). As to the kind of experiment: LDH-Glo cytotoxicity assay in hPCLSs. Conditions: [10×]max: AF 50 μM, DA 100 μM, RG 25 μM; relative to Triton-X 100 positive control, 20% cut-off.
The test system of data set [4] is A/Netherlands/602/09 (NL09). The format is cell-based, influenza A virus.
The test system of another data set is c-Raf. Conditions: cited from earlier work; for higher selectivity for c-Raf than vemurafenib: no reference given.
The test system of another data set is B-Raf. Conditions: no reference given; cited from earlier work.
Data set [5] concerns A(H1N1)pdm09 A/Netherlands/602/09 (NL09). The class given is cell-based, influenza A virus.
The next data set concerns NL09. The class given is cell-based, influenza A virus.
Another data set concerns IAV. Conditions: single donor; cited from earlier work.

Consider seven compounds from publication PMC9504178 (Viruses, 2022).

Each structure is given as a SMILES string.

Turning to `CN(C)C/C=C/C(=O)Nc1cc2c(Nc3ccc(F)c(Cl)c3)ncnc2cc1O[C@H]1CCOC1` [AF, afatinib], in the data set on NL09 and NL11 strains, the “effect on viral titers, NL11 compared with NL09” value (from here on “effect … compared with NL09”) is given as “significantly stronger in NL11-infected cells” and the “reduction in viral titers” value was 100- to 3000 fold. In addition, the “relative infectivity, NL11” value in [1] stood at 65%. Further, in the data set on NL09 and NL11, the “highest viral titer reduction at MOI = 0.1” value (“highest viral titer reduction” below) came to 1000 fold and the “time dependence of effect on virus replication” value (shortened to “time dependence of effect”) was “greater effect on virus replication at the early time points (24 hpi)”. For the same compound, in the data set with NL09 or NL11 strain, the “effect on viral entry (NP staining)” value is recorded as “inhibited”. Also, in the data set with NL11 (H3N2), the “% Luminescence (relative to untreated / normalized to GFP), NL11 infection” value is 50%. Moreover, in the data set with NL09 or NL11, the “significance of viral titer reduction in infected hPCLSs” value (shortened to “significance of viral titer reduction”) was “consistently significant after 48 hpi” and the “time at which inhibition of virus replication in hPCLSs was observed” value (“time at which inhibition” for short) is no more than 12 hpi. Moreover, the “relative cell viability over mock-infected treated controls” value with A549 cells is “only marginally decreased the relative viability”. Moreover, in data set [2], the “effect on viral replication” value is 2- to 5 fold. Also, the “cytotoxicity (LDH release) in hPCLSs at [10×]max” value in data set [3] is greater than 20%.
As for `Cn1cc(-c2cc3c(N4CCN(c5ncc([C@@](C)(N)c6ccc(F)cc6)cn5)CC4)ncnn3c2)cn1` [AV, avapritinib], the “reduction of the titers of both viruses” value in the data set with NL09 and NL11 strains was 10- to 30 fold. Moreover, the “relative infectivity, NL09” value in data set [4] was 80%. In data set [1], the “relative infectivity, NL11” value came out at 81%. In addition, the “highest viral titer reduction” value with NL09 and NL11 is 10 fold. Also, the “effect on viral entry (NP staining)” value in the data set on NL09 or NL11 strain is listed as “no obvious effects on viral entry”. Also, the “time at which inhibition” value in the data set with NL09 or NL11 is given as no more than 12 hpi.
With `CC(C)(C)c1nc(-c2cccc(NS(=O)(=O)c3c(F)cccc3F)c2F)c(-c2ccnc(N)n2)s1` [DA, dabrafenib], in the data set with NL09 and NL11 strains, the “effect … compared with NL09” value is “significantly stronger in NL11-infected cells” and the “reduction in viral titers” value is listed as 10- to 100 fold. The “relative infectivity, NL09” value in [4] worked out at 117%. Further, the “relative infectivity, NL11” value in [1] was 126%. For the same compound, in the data set with NL09 and NL11, the “highest viral titer reduction” value amounted to 100 fold. Also, the “effect on viral entry (NP staining)” value with NL09 or NL11 strain is “inhibited”. Further, in the data set with NL09 or NL11, the “significance of viral titer reduction” value is “consistently significant after 48 hpi” and the “time at which inhibition” value is no more than 12 hpi. Moreover, the “higher selectivity for c-Raf than vemurafenib” value in the data set on c-Raf is given as 10 fold. Moreover, the “higher selectivity for B-Raf than vemurafenib” value in the data set with B-Raf is 10- to 100 fold.
As to `O=C(Nc1cnn2ccc(N3CCC[C@@H]3c3cc(F)ccc3F)nc12)N1CC[C@H](O)C1` [LA, larotrectinib], the “reduction of the titers of both viruses” value in the data set with NL09 and NL11 strains is 10- to 30 fold. In data set [5], the “NL09 viral titer reduction” value is ~ 9 fold. For the same compound, in data set [4], the “relative infectivity, NL09” value came out at 60%. Besides, the “relative infectivity, NL11” value in data set [1] was 91%. In the data set on NL09 and NL11, the “highest viral titer reduction” value was found to be 100 fold and the “time dependence of effect” value was “greater effect on virus replication at the early time points (24 hpi)”. Moreover, the “effect on viral entry (NP staining)” value in the data set with NL09 or NL11 strain was “no obvious effects on viral entry”. Besides, the “relative intracellular to extracellular (I/E) viral RNA Ct ratio (egress)” value in the data set with NL09 is recorded as “did not observe significant differences in any single step of viral replication”. Besides, the “time at which inhibition” value in the data set with NL09 or NL11 is recorded as no less than 72 hpi.
On to `CCOc1cc2ncc(C#N)c(Nc3ccc(OCc4ccccn4)c(Cl)c3)c2cc1NC(=O)/C=C/CN(C)C` [NE, neratinib], for which, in the data set with NL09 and NL11 strains, the “reduction in viral titers” value is given as 40- to 50 fold and the “reduction of the titers of both viruses” value was 10- to 30 fold. Further, the “relative infectivity, NL09” value in [4] turned out to be 70%. In addition, in [1], the “relative infectivity, NL11” value turned out to be 92%. Further, in the data set on NL09 and NL11, the “highest viral titer reduction” value was determined as 100 fold and the “time dependence of effect” value was “greater effect on virus replication at the early time points (24 hpi)”. In the data set with NL09 or NL11 strain, the “effect on viral entry (NP staining)” value was “inhibited”. In the data set on NL09 or NL11, the “antiviral effect in hPCLSs compared to A549 cells” value is reported as “more potent antiviral effect” and the “time at which inhibition” value is listed as no more than 12 hpi.
For `CNC(=O)c1cc(Oc2ccc(NC(=O)Nc3ccc(Cl)c(C(F)(F)F)c3)c(F)c2)ccn1` [RG, regorafenib], in the data set on NL09 and NL11 strains, the “effect … compared with NL09” value was “significantly stronger in NL11-infected cells” and the “reduction in viral titers” value is 10- to 1000 fold. In addition, in [4], the “relative infectivity, NL09” value turned out to be 75%. Further, in data set [1], the “relative infectivity, NL11” value turned out to be 80%. For the same compound, in the data set on NL09 and NL11, the “highest viral titer reduction” value is listed as 10,000 fold and the “time dependence of effect” value is “greater effect on virus replication at the early time points (24 hpi)”. The “effect on viral entry (NP staining)” value in the data set with NL09 or NL11 strain was “inhibited”. In the data set on NL09 or NL11, the “antiviral effect in hPCLSs compared to A549 cells” value is recorded as “more potent antiviral effect”, the “significance of viral titer reduction” value is recorded as “consistently significant after 48 hpi” and the “time at which inhibition” value is on record as no more than 12 hpi. In the data set with c-Raf, the “selectivity for c-Raf relative to B-Raf” value was ~ 10 fold and the “higher selectivity for c-Raf than vemurafenib” value is recorded as 10 fold. The “higher selectivity for B-Raf than vemurafenib” value in the data set with B-Raf is 10- to 100 fold. In addition, in the data set with IAV, the “potency in primary bronchial cells vs A549 cells” value is given as “less potent in primary bronchial cells than in A549 cells”.
As to `Cc1cc(Nc2ncnc3ccc(NC4=NC(C)(C)CO4)cc23)ccc1Oc1ccn2ncnc2c1` [TU, tucatinib], the “reduction of the titers of both viruses” value in the data set with NL09 and NL11 strains is 10- to 30 fold. The “relative infectivity, NL09” value in data set [4] is recorded as 86%. Also, the “relative infectivity, NL11” value in [1] is on record as 100%. Further, the “highest viral titer reduction” value with NL09 and NL11 is 10 fold. Also, the “effect on viral entry (NP staining)” value with NL09 or NL11 strain is on record as “no obvious effects on viral entry”. In addition, the “time at which inhibition” value in the data set on NL09 or NL11 is reported as no more than 12 hpi.
